What was measured:
[1] = target: T1, LCAT (Homo sapiens, UniProt P04180); experiment: LCAT Activity Measurement (In Vitro); type: biochemical; conditions: EC50 of LCAT activation; HDL3 fraction from plasma of a healthy person as enzyme source and acceptor; [14C]cholesterol; 37° C., approximately 16 hours
T1 construct: The obtained fraction was dialyzed against phosphate-buffered saline (pH 7.4) and used as an enzyme source and an acceptor for LCAT; from tissue; host or cells: HDL3 fraction (1.125<specific gravity<1.210 g/mL) of plasma from a healthy person
T1 sequence (P04180 25-440): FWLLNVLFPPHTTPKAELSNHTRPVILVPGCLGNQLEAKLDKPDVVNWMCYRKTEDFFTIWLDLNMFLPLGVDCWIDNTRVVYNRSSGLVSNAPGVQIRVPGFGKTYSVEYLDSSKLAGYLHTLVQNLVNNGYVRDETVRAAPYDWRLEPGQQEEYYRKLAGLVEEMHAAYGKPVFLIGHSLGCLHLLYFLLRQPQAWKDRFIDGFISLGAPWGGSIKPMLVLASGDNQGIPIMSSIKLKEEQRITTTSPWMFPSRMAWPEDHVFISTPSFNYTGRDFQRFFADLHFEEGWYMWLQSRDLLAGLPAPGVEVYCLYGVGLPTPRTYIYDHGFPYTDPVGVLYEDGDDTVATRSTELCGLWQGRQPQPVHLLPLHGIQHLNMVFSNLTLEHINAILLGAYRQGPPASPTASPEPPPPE
Procedure, shortened: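 Human plasma HDL3 (1 mg/mL, PBS pH 7.4) served as enzyme and acceptor with [14C]cholesterol, 0.5 mM DTNB, 12.5 mM mercaptoethanol and 0.6% BSA; compounds in DMSO, incubated ~16 h at 37 °C. Cholesterol oleate radioactivity quantified after extraction and TLC; EC50 of activation fitted relative to no-drug control.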

[2] = tested on: cynomolgus monkey; experiment: Drug Efficacy Test in Cynomolgus Monkeys; type: in vivo; conditions: oral, single dose of 10 mg/kg, compared with before administration, from AUC before administration and 24 hours after administration
Procedure: Each test drug was dissolved in a propylene glycol (Sigma-Aldrich Corp.)-Tween 80 (Sigma-Aldrich Corp.) mixed solution [4/1 (v/v)] or a 0.5% (w/v) methylcellulose aqueous solution, and the solution was orally administered to a cynomolgus monkey for 1 or 7 days. At 1 or 7 day of administration period, blood was collected before administration and after administration, and plasma was obtained. The content of cholesterol in the plasma was measured using a commercially available assay kit (Cholesterol-E Wako, Wako Pure Chemical Industries, Ltd.). The lipoprotein profile was analyzed by HPLC (column: LipopropakXL, manufactured by Tosoh Corp.). The contents of HDL cholesterol and non-HDL cholesterol were calculated according to the following calculation expression: Content of HDL cholesterol=Content of cholesterol in the plasma×(Peak area of HDL cholesterol/Total sum of peaks) Content of non-HDL cholesterol=Content of cholesterol in the plasma×(Peak area of non-HDL cholesterol/Total sum of peaks)
The rate (%) of increase in HDL level after the administration of a single dose of 10 mg/kg compared with before administration was determined from AUC before administration and 24 hours after administration.

With `O=C1CC(O)(C(F)(F)F)c2c(C3CCN(c4ncc(C(F)(F)F)cc4Cl)CC3)n[nH]c2N1` (centres unmarked) [Example 10, 3-{1-[3-Chloro-5-(trifluoromethyl)pyridin-2-yl]piperidin-4-yl}-4-hydroxy-4-(trifluoromethyl)-1,4,5,7-tetrahydro-6H-pyrazolo[3,4-b]pyridin-6-one] the EC50 [1] was 210 nM and the “Rate of increase in HDL level after administration of single dose” value [2] was 526%.
